From patent US20260209260A1, “VECTORIZED NHC IRIDIUM(III) COMPLEXES AND USE THEREOF IN PHOTODYNAMIC THERAPY AND/OR DIAGNOSTIC” (CENTRE NATIONAL DE LA RECHERCHE SCIENTIFIQUE, priority 2022, published 2026)
Values joined by “and” are separate entries in the source; they are usually repeats but may differ in a detail not shown here. Identical values can stand only once. Like-named read-outs stand apart in the source and are kept apart here.

Legend:
[1] = Luminescence emission spectra and quantum yield; type: physicochemical; settings: room temperature; reference POPOP in hexane or rhodamine B in ethanol
Method in brief: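 Relative luminescence quantum yields (Demas–Crosby) were derived from integrated emission areas of sample versus reference standard, with solvent refractive-index correction, on RT solutions. Emission spectra, fluorescence and phosphorescence, were taken for the complexes in CH2Cl2 at room temperature.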

[2] = tested on: cancer cells (all tumor cell lines tested); experiment: Cell viability assay (MTT), summary over the cancer cell lines tested; type: cell-based, Human
Description: (§1) Cells were grown in humidified incubators at 37° C. in 5% CO2. Murine MC3T3 osteoblast and NIH-3T3 fibroblast cells-used as non-tumor cell models-were cultured in a-MEM medium and DMEM medium supplemented with 10% fetal bovine serum (FBS) and 1% Penicillin/Streptomycin (P/S) antibiotics, respectively. Human T24 bladder, MGHU3 bladder, Scaber bladder, A549 lung, MCF7 breast, MiaPaCa2 pancreas cancer cells were cultured in DMEM medium supplemented with 10% FBS and 1% P/S antibiotics. […] Human Hela cervix and HepG2 liver cancer cells were cultured EMEM medium supplemented with 10% FBS and 1% P/S antibiotics.
(§2) MTT reagent (3-(4,5-dimethylthiazol-2-yl)-2,5-diphenyltetrazolium bromide) was used to determine cell death as originally described by Mosmann. Briefly, cells were seeded from 5,000 to 10,000 cells/well in 24-well plates (1 mL) depending on the cell type and allowed to attach overnight. The complexes were prepared in DMSO. The concentration of the complexes was calculated based on the elemental composition of the complexes determined by the elemental analyses. All cell viability experiments were carried out with a fixed concentration of 0.1% (v/v) DMSO. After 72 h of treatment, cells were incubated at 37° C. and 5% CO2 with 25 μL of MTT solution (5 mg/ml; Sigma-Aldrich) in 24-well plates for 3 to 4 h. After solubilization with 500 μL of DMSO, formazan was quantified spectrophotometrically with a microplate reader at 570 nm absorbance (ClarioSTAR, BMG LabTech). […] All the results were calculated from data obtained in at least three independent experiments performed in triplicate.
(§3) Two sets of experiments were conducted in parallel for each complex to be studied:
(§4) 1. The cells were incubated with the different complexes (in the dark) for 72 h.
(§5) 2. The cells were incubated for 8 h with the different complexes (in the dark), then irradiated for 10 min, followed by an incubation in the dark up to 72 h.

[3] = Lipophilicity: octanol-water partition coefficient, shake-flask method
Method in brief: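 Octanol and water mutually pre-saturated for 24 h; compound ([…] stock in aqueous phase) partitioned against equal volume n-octanol, mixed 15 min, phases separated by centrifugation.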

A549 lung cancer cells = experiment: Cell viability assay (MTT), dark and blue light; type: cell-based, Human; settings: for SI (vs MC3T3) A549 Blue / SI (vs NIH-3T3) A549 Blue: blue light 458 nm; for Photosensitizing index (PI) A549: dark vs blue light 458 nm
Description: as §1, §2, §3, §4, §5

[4] = tested on: ASPC-1 pancreas cancer cells; experiment: Cell viability assay (MTT), dark and blue light; type: cell-based, Human; settings: for SI (vs MC3T3) ASPC-1 Blue / SI (vs NIH-3T3) ASPC-1 Blue: blue light 458 nm; for Photosensitizing index (PI) ASPC-1: dark vs blue light 458 nm
Description: as §1, §2, §3, §4, §5

T24 bladder cancer cells = experiment: Cell viability assay (MTT), dark and blue light; type: cell-based, Human; settings: for SI (vs MC3T3) T24 Blue / SI (vs NIH-3T3) T24 Blue: blue light 458 nm; for Photosensitizing index (PI) T24: dark vs blue light 458 nm
Description: as §1, §2, §3, §4, §5

[5] = tested on: MiaPaCa2 pancreas cancer cells; experiment: Cell viability assay (MTT), dark and blue light; type: cell-based, Human; settings: for SI (vs MC3T3) MiaPaCa2 Blue / SI (vs NIH-3T3) MiaPaCa2 Blue: blue light 458 nm; for Photosensitizing index (PI) MiaPaCa2: dark vs blue light 458 nm
Description: as §1, §2, §3, §4, §5

[6] = Emission lifetime measurement; type: physicochemical
Method in brief: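 Time-correlated single-photon counting with 0.5 ns resolution, using D2-lamp or 405 nm pulsed-diode-laser excitation, gave the lifetimes; quoted uncertainty is 5%.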

[7] = tested on: NIH-3T3 fibroblast cells (non-tumor); experiment: Cell viability assay (MTT), dark and blue light; type: cell-based, Murine; settings: for Photosensitizing index (PI) NIH-3T3: dark vs blue light 458 nm
Method in brief: (§6)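 Cells were either kept dark for the full 72 h with complex or given 10 min irradiation after 8 h dark pre-incubation, then held dark to 72 h. DMSO fixed at 0.1% (v/v); MTT formazan measured at 570 nm; ≥3 independent triplicate experiments.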

[8] = tested on: MC3T3 osteoblast cells (non-tumor); experiment: Cell viability assay (MTT), dark and blue light; type: cell-based, Murine; settings: for Photosensitizing index (PI) MC3T3: dark vs blue light 458 nm
Method in brief: as §6

[9] = UV/Vis absorption spectra; type: physicochemical; settings: room temperature, air-saturated CH2Cl2 or CH2Cl2/MeOH (1:1), 50 μM; ε in brackets, sh = shoulder
Description: UV/Vis absorption spectra were recorded at RT on solutions contained in quartz cuvettes (optical pathlength 1 cm, Hellma®) with a PerkinElmer® UV/VIS/NIR spectrophotometer Lambda 950 and a PerkinElmer® detector UV/VIS/NIR Accessory 2D Detector Module.

[10] = POPOP in hexane, rhodamine B in ethanol; cited from earlier work
[11] = 8 h in the dark, blue light 458 nm 10 min, then dark up to 72 h, read-out: GI50 A549 Blue
[12] = in the dark, 72 h, read-out: GI50 A549 Dark
[13] = 8 h in the dark, blue light 458 nm 10 min, then dark up to 72 h, read-out: GI50 ASPC-1 Blue
[14] = in the dark, 72 h, read-out: GI50 ASPC-1 Dark
[15] = 8 h in the dark, blue light 458 nm 10 min, then dark up to 72 h, read-out: GI50 T24 Blue
[16] = in the dark, 72 h, read-out: GI50 T24 Dark
[17] = 8 h in the dark, blue light 458 nm 10 min, then dark up to 72 h, read-out: GI50 MiaPaCa2 Blue
[18] = in the dark, 72 h, read-out: GI50 MiaPaCa2 Dark
[19] = 8 h in the dark, blue light 458 nm 10 min, then dark up to 72 h, read-out: GI50 NIH-3T3 Blue
[20] = in the dark, 72 h, read-out: GI50 NIH-3T3 Dark
[21] = 8 h in the dark, blue light 458 nm 10 min, then dark up to 72 h, read-out: GI50 MC3T3 Blue
[22] = in the dark, 72 h, read-out: GI50 MC3T3 Dark

For COC(=O)c1ccc2[n+](c1)[Ir-3]13([c]4ccccc4-2)([c]2ccccc2-c2ccc(C(=O)OC)c[n+]21)[c]1n(CCCNC(=O)c2ccccc2SC/C=C(\C)CC/C=C(\C)CCC=C(C)C)cc[n+]1-c1cccc[n+]13.F[P-](F)(F)(F)(F)F [II-e], the “ΦP emission phosphorescence quantum yield” value [1] was 4.6%, the “SI values, mean over cancer cells, dark” value [2] was 4.1 fold and the “SI values, median over cancer cells, dark” value [2] was 4.1 fold. For the same compound, the “Log P” value ([3]; n-octanol/water, shake-flask, mean of at least three determinations) was 1.30 ± 0.02, the GI50 (A549 lung cancer cells; [11]) was 0.69 µM and the “SI (vs MC3T3) A549 Blue” value (A549 lung cancer cells) was 14.6. For the same compound, the “SI (vs NIH-3T3) A549 Blue” value (A549 lung cancer cells) was 7.5, the “SI (vs MC3T3) A549 Dark” value (A549 lung cancer cells) was 2.9 and the “SI (vs NIH-3T3) A549 Dark” value (A549 lung cancer cells) was 3.2. The “Photosensitizing index (PI) A549” value (A549 lung cancer cells) was 5.5, the GI50 (A549 lung cancer cells; [12]) was 3.8 µM and the GI50 [4, 13] was 1.3 µM. The “SI (vs MC3T3) ASPC-1 Blue” value [4] was 7.9, the “SI (vs NIH-3T3) ASPC-1 Blue” value [4] was 4.1 and the “SI (vs MC3T3) ASPC-1 Dark” value [4] was 2.2. The “SI (vs NIH-3T3) ASPC-1 Dark” value [4] was 2.3, the “Photosensitizing index (PI) ASPC-1” value [4] was 4.0 and the GI50 [4, 14] was 5.1 µM. The GI50 (T24 bladder cancer cells; [15]) was 0.26 µM, the “SI (vs MC3T3) T24 Blue” value (T24 bladder cancer cells) was 38.8 and the “SI (vs NIH-3T3) T24 Blue” value (T24 bladder cancer cells) was 20.0. The “SI (vs MC3T3) T24 Dark” value (T24 bladder cancer cells) was 5.0, the “SI (vs NIH-3T3) T24 Dark” value (T24 bladder cancer cells) was 5.5 and the “Photosensitizing index (PI) T24” value (T24 bladder cancer cells) was 8.6. The GI50 (T24 bladder cancer cells; [16]) was 2.2 µM, the GI50 [5, 17] was 0.18 µM and the “SI (vs MC3T3) MiaPaCa2 Blue” value [5] was 57.7. The “SI (vs NIH-3T3) MiaPaCa2 Blue” value [5] was 29.7, the “SI (vs MC3T3) MiaPaCa2 Dark” value [5] was 5.6 and the “SI (vs NIH-3T3) MiaPaCa2 Dark” value [5] was 6.1. The “Photosensitizing index (PI) MiaPaCa2” value [5] was 11.2, the GI50 [5, 18] was 2 µM and the τ1 emission lifetime [6] was 182 ns. The GI50 [7, 19] was 5.2 µM, the “Photosensitizing index (PI) NIH-3T3” value [7] was 2.3 and the GI50 [7, 20] was 12 µM. For the same compound, the GI50 [8, 21] was 10.1 µM, the “Photosensitizing index (PI) MC3T3” value [8] was 1.1 and the GI50 [8, 22] was 11 µM. For the same compound, the “λmax (nm) ε (M^−1 · cm^−1)” value [9] was 310 (sh) (24540), 363 (sh) (5975), 432 (5280) nm (M^−1 · cm^−1).
For CC(C)=CCC/C(C)=C/CC/C(C)=C/CSc1ccccc1C(=O)NCCCn1cc[n+]2[c]1[Ir-3]13([c]4ccccc4-c4ccc5ccccc5[n+]41)([c]1ccccc1-c1ccc4ccccc4[n+]13)[n+]1ccccc1-2.F[P-](F)(F)(F)(F)F [II-g], the “selectivity for cancer cells over non-tumor cells, in words” value [2] was “highest selectivity toward cancer cells compared to non-tumor cells”, the “SI values, mean over cancer cells, dark” value [2] was 10.2 fold and the “SI values, median over cancer cells, dark” value [2] was 10.3 fold. For the same compound, the “Log P” value [3] was 1.95 ± 0.05, the GI50 (A549 lung cancer cells; [11]) was 0.39 µM and the “SI (vs MC3T3) A549 Blue” value (A549 lung cancer cells) was 15.2. The “SI (vs NIH-3T3) A549 Blue” value (A549 lung cancer cells) was 13.2, the “SI (vs MC3T3) A549 Dark” value (A549 lung cancer cells) was 12.9 and the “SI (vs NIH-3T3) A549 Dark” value (A549 lung cancer cells) was 9.6. For the same compound, the “Photosensitizing index (PI) A549” value (A549 lung cancer cells) was 1.2, the GI50 (A549 lung cancer cells; [12]) was 0.45 µM and the GI50 [4, 13] was 0.47 µM. The “SI (vs MC3T3) ASPC-1 Blue” value [4] was 12.6, the “SI (vs NIH-3T3) ASPC-1 Blue” value [4] was 10.9 and the “SI (vs MC3T3) ASPC-1 Dark” value [4] was 7.8. For the same compound, the “SI (vs NIH-3T3) ASPC-1 Dark” value [4] was 5.8, the “Photosensitizing index (PI) ASPC-1” value [4] was 1.6 and the GI50 [4, 14] was 0.74 µM. The GI50 (T24 bladder cancer cells; [15]) was 0.64 µM and 0.65 µM, the “SI (vs MC3T3) T24 Blue” value (T24 bladder cancer cells) was 9.2 and the “SI (vs NIH-3T3) T24 Blue” value (T24 bladder cancer cells) was 8.0. The “SI (vs MC3T3) T24 Dark” value (T24 bladder cancer cells) was 12.3, the “SI (vs NIH-3T3) T24 Dark” value (T24 bladder cancer cells) was 9.1 and the “Photosensitizing index (PI) T24” value (T24 bladder cancer cells) was 0.7. For the same compound, the GI50 (T24 bladder cancer cells; [16]) was 0.47 µM, the GI50 [5, 17] was 0.25 µM and the “SI (vs MC3T3) MiaPaCa2 Blue” value [5] was 24.0. The “SI (vs NIH-3T3) MiaPaCa2 Blue” value [5] was 20.7, the “SI (vs MC3T3) MiaPaCa2 Dark” value [5] was 14.4 and the “SI (vs NIH-3T3) MiaPaCa2 Dark” value [5] was 10.7. For the same compound, the “Photosensitizing index (PI) MiaPaCa2” value [5] was 1.6, the GI50 [5, 18] was 0.4 µM and the GI50 [7, 19] was 5.1 µM. For the same compound, the “Photosensitizing index (PI) NIH-3T3” value [7] was 0.8, the GI50 [7, 20] was 4.3 µM and the GI50 [8, 21] was 5.9 µM. The “Photosensitizing index (PI) MC3T3” value [8] was 1.0, the GI50 [8, 22] was 5.8 µM and the “λmax (nm) ε (M^−1 · cm^−1)” value [9] was 333 (20560), 438 (4735) nm (M^−1 · cm^−1).
For CCN(CC)c1ccc2c(-c3ccccc3C(=O)O)c3ccc(=[N+](CC)CC)cc-3oc2c1.[Cl-] [rhodamine B], the “quantum yield of the reference standard” value [10] is listed as 65%.
